Format in all cases: biochemical
The target of assay [1] is human JAK1 (a.a. 837-1142) (Homo sapiens, UniProt P23458). Put plainly: In vitro JAK kinase assay (HTRF, phosphorylation of a biotinylated peptide), JAK1. Particulars: measured at 1 mM ATP. The essentials: (§1)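 N-terminal His-tagged catalytic domains, baculovirus-expressed in insect cells, phosphorylated a biotinylated peptide for 1 hr at room temperature. EDTA stop was followed by SA-APC and Eu-Py20 antibody for 40 minutes, with phosphopeptide read by HTRF.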

The target in assay [2] is human JAK1 (a.a. 837-1142). Described as above. Conditions: ratio of JAK2 IC50 to JAK1 IC50, measured at 1 mM ATP. The gist of the method:
as §1

The next assay addresses Jak2 (a.a. 828-1132) (Homo sapiens (Human), UniProt O60674). Put plainly: In vitro JAK kinase assay (HTRF, phosphorylation of a biotinylated peptide), JAK2. Conditions: measured at 1 mM ATP. The gist of the method:
as §1
For orientation: Time-resolved FRET reads energy transfer from a long-lived donor to a nearby acceptor.

Consider 16 compounds from patent US9999619B2, “Piperidin-4-yl azetidine derivatives as JAK1 inhibitors” (Incyte Corporation, priority 2010, dated 2018).

One may read the IC50 as the midpoint of a concentration-inhibition curve. Lower therefore signals higher potency.

SMILES strings stand for the structures.

Jak2 (a.a. 828-1132), sequence (O60674 828-1132): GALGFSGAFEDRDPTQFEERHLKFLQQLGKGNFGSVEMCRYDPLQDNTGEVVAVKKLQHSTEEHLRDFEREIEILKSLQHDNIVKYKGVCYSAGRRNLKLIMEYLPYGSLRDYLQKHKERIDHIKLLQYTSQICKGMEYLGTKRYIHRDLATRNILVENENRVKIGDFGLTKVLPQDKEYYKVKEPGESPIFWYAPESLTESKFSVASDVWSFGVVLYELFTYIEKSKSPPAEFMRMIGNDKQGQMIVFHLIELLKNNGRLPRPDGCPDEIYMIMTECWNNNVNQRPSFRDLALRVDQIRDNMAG

Consider `N#CCC1(n2cc(-c3ncnc4[nH]ccc34)cn2)CN(C2CCN(Cc3ccc(-c4conn4)cc3)CC2)C1` [Example 221, {1-{1-[4-(1,2,3-oxadiazol-4-yl)benzyl]piperidin-4-yl}-3-[4-(7H-pyrrolo[2,3-d]pyrimidin-4-yl)-1H-pyrazol-1-yl]azetidin-3-yl}acetonitrile], for which the results for the 50% inhibitory concentration (IC50) (in assay [1]; against Jak2 (a.a. 828-1132)) were 5 to 20 nM and 10 to 50 nM, respectively. Moreover, the “IC50 Ratio JAK2/JAK1” value in assay [2] came to 1.3.

As to `CC(C)(C)C(=O)Nc1ncccc1CN1CCC(N2CC(CC#N)(n3cc(-c4ncnc5[nH]ccc45)cn3)C2)CC1` [Example 235], the IC50 in assay [1] was in the range of 5 to 20 nM; against Jak2 (a.a. 828-1132) it was 10 to 50 nM. Also, the “IC50 Ratio JAK2/JAK1” value in assay [2] came out at 2.5.

With `N#CCC1(n2cc(-c3c(F)cnc4[nH]ccc34)cn2)CN(C2CCN(C(=O)Nc3ncccc3C(F)(F)F)CC2)C1` [Example 329, 4-{3-(cyanomethyl)-3-[4-(5-fluoro-1H-pyrrolo[2,3-b]pyridin-4-yl)-1H-pyrazol-1-yl]azetidin-1-yl}-N-[3-(trifluoromethyl)pyridin-2-yl]piperidine-1-carboxamide], the half-inhibitory concentration (IC50) in assay [1] lay within 5 to 20 nM; against Jak2 (a.a. 828-1132) it was 50 to 100 nM. Moreover, the “IC50 Ratio JAK2/JAK1” value in assay [2] is 4.5.

As to `N#CCC1(n2cc(-c3ncnc4[nH]ccc34)cn2)CN(C2CCN(Cc3cccc(C#N)c3)CC2)C1` [Example 223, 3-[(4-{3-(cyanomethyl)-3-[4-(7H-pyrrolo[2,3-d]pyrimidin-4-yl)-1H-pyrazol-1-yl]azetidin-1-yl}piperidin-1-yl)methyl]benzonitrile], the IC50 in assay [1] is 5 to 20 nM; at Jak2 (a.a. 828-1132), 10 to 50 nM. Moreover, the “IC50 Ratio JAK2/JAK1” value in assay [2] is recorded as 5.9.

Take `Cc1ccsc1C(=O)N1CCC(N2CC(CC#N)(n3cc(-c4ncnc5[nH]ccc45)cn3)C2)CC1` [Example 78, {1-{1-[(3-methyl-2-thienyl)carbonyl]piperidin-4-yl}-3-[4-(7H-pyrrolo[2,3-d]pyrimidin-4-yl)-1H-pyrazol-1-yl]azetidin-3-yl}acetonitrile]: the 50% inhibitory concentration (IC50) in assay [1] is at most 5 nM; against Jak2 (a.a. 828-1132), 10 to 50 nM. Besides, the “IC50 Ratio JAK2/JAK1” value in assay [2] worked out at 5.4.

Turning to `N#CCC1(n2cc(-c3c(F)cnc4[nH]ccc34)cn2)CN(C2CCN(C(=O)c3ccnc(C(F)(F)F)c3F)CC2)C1` [Example 314, (3-[4-(5-Fluoro-1H-pyrrolo[2,3-b]pyridin-4-yl)-1H-pyrazol-1-yl]-1-{1-[3-fluoro-2-(trifluoromethyl)isonicotinoyl]piperidin-4-yl}azetidin-3-yl)acetonitrile], the concentration for half-maximal inhibition (IC50) in assay [1] was at most 5 nM; on Jak2 (a.a. 828-1132) it was 10 to 50 nM. The “IC50 Ratio JAK2/JAK1” value in assay [2] is recorded as 11.0.

Consider `CN(C)Cc1cc(C#N)cc(C(=O)N2CCC(N3CC(CC#N)(n4cc(-c5ncnc6[nH]ccc56)cn4)C3)CC2)c1` [Example 369, 3-[(4-{3-(cyanomethyl)-3-[4-(7H-pyrrolo[2,3-d]pyrimidin-4-yl)-1H-pyrazol-1-yl]azetidin-1-yl}piperidin-1-yl)carbonyl]-5-[(dimethylamino)methyl]benzonitrile], for which the 50% inhibitory concentration (IC50) in assay [1] was at most 5 nM; on Jak2 (a.a. 828-1132), over 100 nM. For the same compound, in assay [2], the “IC50 Ratio JAK2/JAK1” value was 43.8.

`N#CCC1(n2ccc(-c3ncnc4[nH]ccc34)c2)CN(C2CCN(C(=O)c3cc(F)cc(C(F)(F)F)c3)CC2)C1` [Example 274, {1-{1-[3-fluoro-5-(trifluoromethyl)benzoyl]piperidin-4-yl}-3-[3-(7H-pyrrolo[2,3-d]pyrimidin-4-yl)-1H-pyrrol-1-yl]azetidin-3-yl}acetonitrile]: the values for the IC50 (in assay [1]; against Jak2 (a.a. 828-1132)) were at most 5 nM and 10 to 50 nM, respectively. Besides, the “IC50 Ratio JAK2/JAK1” value in assay [2] amounted to 9.0.

`N#CCC1(n2ccc(-c3ncnc4[nH]ccc34)c2)CN(C2CCN(C(=O)Nc3ccc(F)cc3F)CC2)C1` [Example 286, 4-{3-(cyanomethyl)-3-[3-(7H-pyrrolo[2,3-d]pyrimidin-4-yl)-1H-pyrrol-1-yl]azetidin-1-yl}-N-(2,4-difluorophenyl)piperidine-1-carboxamide]: the half-inhibitory concentration (IC50) in assay [1] was at most 5 nM; against Jak2 (a.a. 828-1132), 10 to 50 nM. Further, the “IC50 Ratio JAK2/JAK1” value in assay [2] is reported as 13.1.

With `N#CCC1(n2cc(-c3ncnc4[nH]ccc34)cn2)CN(C2CC3CCC(C2)N3C(=O)c2ccnc(C(F)(F)F)c2F)C1` (stereo not drawn) [Example 142, {1-{8-[3-fluoro-2-(trifluoromethyl)isonicotinoyl]-8-azabicyclo[3.2.1]oct-3-yl}-3-[4-(7H-pyrrolo[2,3-d]pyrimidin-4-yl)-1H-pyrazol-1-yl]azetidin-3-yl}acetonitrile], the concentration for half-maximal inhibition (IC50) in assay [1] was at most 5 nM; against Jak2 (a.a. 828-1132), at most 10 nM. Besides, in assay [2], the “IC50 Ratio JAK2/JAK1” value stood at 7.4.

In the case of `COc1c(C(=O)N2CCC(N3CC(CC#N)(n4cc(-c5ncnc6[nH]ccc56)cn4)C3)CC2)csc1Cl` [Example 74, {1-{1-[(5-chloro-4-methoxy-3-thienyl)carbonyl]piperidin-4-yl}-3-[4-(7H-pyrrolo[2,3-d]pyrimidin-4-yl)-1H-pyrazol-1-yl]azetidin-3-yl}acetonitrile], the half-maximal inhibitory concentration (IC50) in assay [1] was at most 5 nM; on Jak2 (a.a. 828-1132), 10 to 50 nM. For the same compound, the “IC50 Ratio JAK2/JAK1” value in assay [2] is listed as 3.8.

Turning to `N#CCC1(n2cc(-c3ncnc4[nH]ccc34)cn2)CN(C2CCN(Cc3cccc(Oc4ccccc4)c3)CC2)C1` [Example 233, {1-[1-(3-phenoxybenzyl)piperidin-4-yl]-3-[4-(7H-pyrrolo[2,3-d]pyrimidin-4-yl)-1H-pyrazol-1-yl]azetidin-3-yl}acetonitrile], the values for the IC50 (in assay [1]; on Jak2 (a.a. 828-1132)) were 20 to 30 nM and 50 to 100 nM, respectively. The “IC50 Ratio JAK2/JAK1” value in assay [2] came to 2.2.

With `N#CCC1(n2cc(-c3ncnc4[nH]ccc34)cn2)CN(C2CCN(C(=O)Nc3ccccc3OC(F)(F)F)CC2)C1` [Example 158, 4-{3-(cyanomethyl)-3-[4-(7H-pyrrolo[2,3-d]pyrimidin-4-yl)-1H-pyrazol-1-yl]azetidin-1-yl}-N-[2-(trifluoromethoxy)phenyl]piperidine-1-carboxamide], the IC50 in assay [1] is at most 5 nM; on Jak2 (a.a. 828-1132), 10 to 50 nM. In addition, the “IC50 Ratio JAK2/JAK1” value in assay [2] is 12.0.

With `N#CCC1(n2cc(-c3ncnc4[nH]ccc34)cn2)CN(C2CCN(S(=O)(=O)c3ccc(C#N)cc3)CC2)C1` [Example 249, 4-[(4-{3-(cyanomethyl)-3-[4-(7H-pyrrolo[2,3-d]pyrimidin-4-yl)-1H-pyrazol-1-yl]azetidin-1-yl}piperidin-1-yl)sulfonyl]benzonitrile], the results for the 50% inhibitory concentration (IC50) (in assay [1]; at Jak2 (a.a. 828-1132)) were 5 to 20 nM and 10 to 50 nM, respectively. The “IC50 Ratio JAK2/JAK1” value in assay [2] worked out at 2.1.

Consider `CCOC(=O)N1CCC(N2CC(CC#N)(n3cc(-c4ncnc5[nH]ccc45)cn3)C2)CC1` [Example 388, ethyl 4-{3-(cyanomethyl)-3-[4-(7H-pyrrolo[2,3-d]pyrimidin-4-yl)-1H-pyrazol-1-yl]azetidin-1-yl}piperidine-1-carboxylate], for which the figures for the 50% inhibitory concentration (IC50) (in assay [1]; against Jak2 (a.a. 828-1132)) were 5 to 20 nM and 10 to 50 nM, respectively. Moreover, in assay [2], the “IC50 Ratio JAK2/JAK1” value stood at 7.6.

For the compound `N#CCC1(n2cc(-c3ncnc4[nH]ccc34)cn2)CN(C2CCN(C(=O)C3(c4ccc(Cl)cc4)CC3)CC2)C1` [Example 111, {1-(1-{[1-(4-chlorophenyl)cyclopropyl]carbonyl}piperidin-4-yl)-3-[4-(7H-pyrrolo[2,3-d]pyrimidin-4-yl)-1H-pyrazol-1-yl]azetidin-3-yl}acetonitrile], the IC50 is 5 to 20 nM in assay [1] and 10 to 50 nM at Jak2 (a.a. 828-1132). Moreover, the “IC50 Ratio JAK2/JAK1” value in assay [2] turned out to be 2.6.
